Converted amounts (≈) assume the structure as drawn. The source made the active and inactive calls. No cut-off for these calls is given here.
How the values were obtained:
Lipid bilayer [1] = experiment: Binding affinity to DOPG large unilamellar vesicle assessed as Stern-Volmer quenching constant after 10 mins in presence of potassium iodide by fluorescence assay (reference value: 47.22 +/- 1.58 no_unit)
Lipid bilayer [2] = experiment: Binding affinity to DOPG large unilamellar vesicle assessed as blue shift in emission maximum at 5 mg/L after 10 mins by fluorescence assay relative to control
Lipid bilayer [3] = experiment: Binding affinity to DOPG large unilamellar vesicle assessed as increase in fluorescence intensity at 5 mg/L after 10 mins by fluorescence assay relative to control
J774.A1 = experiment: Cytotoxicity against mouse J774A.1 cells assessed as damage to cell membrane by measuring propidium iodide intake at 5 uM by spectrofluorometric analysis; format: cell-based; settings: j774.a1, 5 µM
Pseudomonas aeruginosa [4] = experiment: microbe, parasite or virus in culture; settings: CCM 3955, 24 h
Bacillus subtilis [5] = experiment: Antibacterial activity against Bacillus subtilis assessed as inhibition of DNA synthesis at 2 mg/L after 50 mins by [3H]thymidine incorporation assay; format: functional
Burkholderia multivorans = experiment: Antibacterial activity against Burkholderia multivorans after 24 hrs by microdilution method; format: functional
BJ = experiment: Cytotoxicity against human BJ cells assessed as reduction in cell viability after 48 hrs by ATPlite reagent based assay
Bacillus subtilis [6] = experiment: Antibacterial activity against Bacillus subtilis assessed as inhibition of protein synthesis at 2 mg/L after 50 mins by [35S]-methionine incorporation assay; format: functional
[7] = Chemical stability of compound at 50 to 500 mg/L at pH 5 after 24 hrs at 37 degC by LC-MS analysis; format: physicochemical; settings: buffer, pH 5, 24 h
TERT-RPE1 [8] = experiment: Cytotoxicity against human RPE1 cells assessed as disruption of cell membrane integrity at >80 mg/L after 4 hrs by CytoTox-ONE-based assay; settings: tert-rpe1, 4 h
[9] = Chemical stability of compound at 50 to 500 mg/L at pH 5 after 24 hrs at room temperature by LC-MS analysis; format: physicochemical; settings: buffer, pH 5, 24 h
[10] = system: Stenotrophomonas maltophilia; experiment: Antibacterial activity against Stenotrophomonas maltophilia S2-23 after 24 hrs by microdilution method; format: functional; settings: S2-23, 24 h
Pseudomonas aeruginosa [11] = experiment: Antibacterial activity against Pseudomonas aeruginosa CCM 3955 after 24 hrs by microdilution method; format: functional; settings: CCM 3955, 24 h
Enterococcus faecium = experiment: Antibacterial activity against vancomycin-resistant Enterococcus faecium 419/ana clinical isolates after 24 hrs by microdilution method; format: functional
Bacillus subtilis [12] = experiment: Antibacterial activity against Bacillus subtilis after 24 hrs by microdilution method; format: functional
Acinetobacter baumannii = experiment: Antibacterial activity against Acinetobacter baumannii A3-08 after 24 hrs by microdilution method; format: functional; settings: A3-08, 24 h
Lipid bilayer [13] = experiment: Binding affinity to DOPC large unilamellar vesicle assessed as carboxyfluorescein leakage at 10 to 20 ug/ml after 20 secs by fluorescence-based assay relative to control
HepG2 [14] = experiment: Induction of apoptosis in human HepG2 cells assessed as caspase 3/7 activation up to 80 mg/L after 4 hrs by caspase-Glo 3/7 luminescent assay; format: cell-based; settings: hepg2, 4 h
TERT-RPE1 [15] = experiment: Induction of apoptosis in human RPE1 cells assessed as caspase 3/7 activation up to 80 mg/L after 4 hrs by caspase-Glo 3/7 luminescent assay; format: cell-based; settings: tert-rpe1, 4 h
Bacillus subtilis [16] = experiment: Antibacterial activity against Bacillus subtilis assessed as inhibition of RNA synthesis at 2 mg/L after 50 mins by [3H]-uridine incorporation assay; format: functional
Escherichia coli [17] = experiment: Antibacterial activity against Escherichia coli CCM 3954 after 24 hrs by microdilution method; format: functional; settings: CCM 3954, 24 h
[18] = Apparent permeability across apical to basolateral side in human Caco2 cells at 200 uM after 3 hrs by LC-MS analysis; format: ADME, cell-based; settings: caco-2, 3 h
TERT-RPE1 [19] = experiment: Cytotoxicity against human RPE1 cells assessed as reduction in cell viability after 48 hrs by ATPlite reagent based assay; settings: tert-rpe1, 48 h
HepG2 [20] = experiment: Cytotoxicity against human HepG2 cells assessed as disruption of cell membrane integrity after 4 hrs by CytoTox-ONE-based assay; settings: hepg2, 4 h
Bacillus subtilis [21] = experiment: Antibacterial activity against Bacillus subtilis assessed as inhibition of plasma membrane lipids synthesis at 2 mg/L after 50 mins by [3H]-sodium acetate incorporation assay; format: functional
Lipid bilayer [22] = experiment: Binding affinity to DOPG large unilamellar vesicle assessed as carboxyfluorescein leakage at 10 ug/ml after 20 secs by fluorescence-based assay relative to control
Lipid bilayer [23] = experiment: Binding affinity to DOPG large unilamellar vesicle assessed as carboxyfluorescein leakage at 10 mg/L after 20 secs by fluorescence-based assay relative to control
Pseudomonas aeruginosa [24] = experiment: Antibacterial activity against Pseudomonas aeruginosa 16575 after 24 hrs by microdilution method; format: functional; settings: Pseudomonas aeruginosa, 16575, 24 h
Enterococcus faecalis = experiment: Antibacterial activity against Enterococcus faecalis CCM 4224 after 24 hrs by microdilution method; format: functional; settings: CCM 4224, 24 h
Staphylococcus aureus [25] = experiment: Antibacterial activity against Staphylococcus aureus CCM 4223 after 24 hrs by microdilution method; format: functional; settings: CCM 4223, 24 h
[26] = system: Staphylococcus epidermidis; experiment: Antibacterial activity against Staphylococcus epidermidis 8700/B after 24 hrs by microdilution method; format: functional
[27] = Chemical stability of compound at 50 to 500 mg/L at pH 8.8 after 24 hrs at 37 degC by LC-MS analysis; format: physicochemical; settings: buffer, pH 8.8, 24 h
[28] = Chemical stability of compound at 50 to 500 mg/L at pH 0.18 after 24 hrs at room temperature by LC-MS analysis; format: physicochemical; settings: buffer, pH 0.18, 24 h
[29] = system: Staphylococcus haemolyticus; experiment: Antibacterial activity against fluoroquinolne-resistant Staphylococcus haemolyticus 16568 after 24 hrs by microdilution method; format: functional; settings: Staphylococcus haemolyticus, 16568, 24 h
Streptococcus agalactiae = experiment: Antibacterial activity against Streptococcus agalactiae after 24 hrs by microdilution method; format: functional
Salmonella enteritidis = experiment: Antibacterial activity against Salmonella enteritidis S2-25 after 24 hrs by microdilution method; format: functional, Salmonella enterica subsp. enterica serovar Enteritidis; settings: Salmonella enterica, S2-25, 24 h
[30] = Chemical stability of compound at 50 to 500 mg/L at pH 8.8 after 24 hrs at room temperature by LC-MS analysis; format: physicochemical; settings: buffer, pH 8.8, 24 h
HepG2 [31] = experiment: Cytotoxicity against human HepG2 cells assessed as reduction in cell viability after 48 hrs by ATPlite reagent based assay; settings: hepg2, 48 h
Bacillus subtilis [32] = experiment: Antibacterial activity against Bacillus subtilis assessed as inhibition of peptidoglycan synthesis at 2 mg/L after 50 mins by [3H]-N-acetylglucosamine incorporation assay; format: functional
[33] = Chemical stability of compound at 50 to 500 mg/L at pH 0.18 after 24 hrs at 37 degC by LC-MS analysis; format: physicochemical; settings: buffer, pH 0.18, 24 h
Staphylococcus aureus [34] = experiment: Antibacterial activity against methicillin-resistant Staphylococcus aureus 4591 clinical isolates after 24 hrs by microdilution method; format: functional; settings: Staphylococcus aureus, 4591, 24 h
Escherichia coli [35] = experiment: Antibacterial activity against Escherichia coli 16702 after 24 hrs by microdilution method; format: functional; settings: Escherichia coli, 16702, 24 h
TERT-RPE1 [36] = experiment: Cytotoxicity against human RPE1 cells assessed as disruption of cell membrane integrity after 4 hrs by CytoTox-ONE-based assay; settings: tert-rpe1, 4 h

**Q.** For CCCCCCCCCCCCCCOP(=O)(CCN(CCCN)CCCN)OC[C@H]1O[C@@H](n2cc(-c3ccco3)c(=O)[nH]c2=O)[C@H](O)[C@@H]1O (some centres undefined), which KSV (Lipid bilayer [1]) is on record?
**A.** 0.97

**Q.** And the Activity (Lipid bilayer [2])?
**A.** 25 nm

**Q.** What about the fold change (FC) (Lipid bilayer [3]) of the same molecule?
**A.** 3.5

**Q.** With CC[C@H](C)[C@H](NC(=O)CN)C(=O)NCC(=O)N[C@@H](C)C(=O)N[C@H](C(=O)N[C@@H](CC(C)C)C(=O)N[C@@H](CCCCN)C(=O)N[C@H](C(=O)N[C@@H](CC(C)C)C(=O)N[C@H](C(=O)N[C@H](C(=O)NCC(=O)N[C@@H](CC(C)C)C(=O)N1CCC[C@H]1C(=O)N[C@@H](C)C(=O)N[C@@H](CC(C)C)C(=O)N[C@H](C(=O)N[C@@H](CO)C(=O)N[C@@H](Cc1c[nH]c2ccccc12)C(=O)N[C@H](C(=O)N[C@@H](CCCCN)C(=O)N[C@@H](CCCNC(=N)N)C(=O)N[C@@H](CCCCN)C(=O)N[C@@H](CCCNC(=N)N)C(=O)N[C@@H](CCC(N)=O)C(=O)N[C@@H](CCC(N)=O)C(N)=O)[C@@H](C)CC)[C@@H](C)CC)[C@@H](C)O)[C@@H](C)O)C(C)C)C(C)C [MELITTIN] as the molecule, how does the Activity (J774.A1) read?
**A.** Toxic

**Q.** For O=C(O)c1cn(C2CC2)c2cc(N3CCNCC3)c(F)cc2c1=O [CIPROFLOXACIN], which MIC (Pseudomonas aeruginosa [4]) is on record?
**A.** 4 µg/mL (≈ 12.1 µM)

**Q.** Which results are given for CCCCCCCCCCCCCCCOP(=O)(CCN(CCCN)CCCN)OC[C@H]1O[C@@H](n2ccc(=O)[nH]c2=O)[C@H](O)[C@@H]1O (some centres undefined)?
**A.** inhibition (Bacillus subtilis [5]): inactive; MIC (Burkholderia multivorans): 50 µg/mL (≈ 74 µM); Activity (BJ): 29.1 mg/L; inhibition (Bacillus subtilis [6]): inactive; Stability [7]: Stable; Activity (TERT-RPE1 [8]): Non-Toxic; Stability [9]: Stable; MIC [10]: 3.13 µg/mL (≈ 4.63 µM); MIC (Pseudomonas aeruginosa [11]): 3.13 µg/mL (≈ 4.63 µM); MIC (Enterococcus faecium): 6.25 µg/mL (≈ 9.25 µM); MIC (Bacillus subtilis [12]): 3.13 µg/mL (≈ 4.63 µM); MIC (Acinetobacter baumannii): 3.13 µg/mL (≈ 4.63 µM); Activity (Lipid bilayer [13]): 20 to 35%; Activity (HepG2 [14]): Non-Toxic; Activity (TERT-RPE1 [15]): Non-Toxic; inhibition (Bacillus subtilis [16]): inactive; MIC (Escherichia coli [17]): 6.25 µg/mL (≈ 9.25 µM); permeability [18]: Impermeable; Activity (TERT-RPE1 [19]): 34.8 mg/L; Activity (HepG2 [20]): Non-Toxic; inhibition (Bacillus subtilis [21]): inactive; fold change (FC) (Lipid bilayer [22]): 25; Activity (Lipid bilayer [23]): Active; MIC (Pseudomonas aeruginosa [24]): 6.25 µg/mL (≈ 9.25 µM); MIC (Enterococcus faecalis): 50 µg/mL (≈ 74 µM); MIC (Staphylococcus aureus [25]): 6.25 µg/mL (≈ 9.25 µM); MIC [26]: 3.13 µg/mL (≈ 4.63 µM); Stability [27]: Stable; Stability [28]: Stable; MIC [29]: 3.13 µg/mL (≈ 4.63 µM); MIC (Streptococcus agalactiae): 1.56 µg/mL (≈ 2.31 µM); MIC (Salmonella enteritidis): 6.25 µg/mL (≈ 9.25 µM); Stability [30]: Stable; Activity (HepG2 [31]): 33.2 mg/L; inhibition (Bacillus subtilis [32]): inactive; Stability [33]: Stable; MIC (Staphylococcus aureus [34]): 1.56 µg/mL (≈ 2.31 µM); MIC (Escherichia coli [35]): 25 µg/mL (≈ 37 µM); Activity (TERT-RPE1 [36]): 73.8 mg/L

— ChEMBL document CHEMBL4038308, “Lipophosphonoxins II: Design, Synthesis, and Properties of Novel Broad Spectrum Antibacterial Agents” (J Med Chem, 2017)
